Reference: patent US20250018029A1, “METHODS TO ALTER THE TUMOR MICROENVIRONMENT FOR EFFECTIVE CANCER IMMUNOTHERAPY” (PDS BIOTECHNOLOGY CORPORATION, priority 2016, published 2025)
No end group written: not given here. *: point of attachment. Palmitoyl = CCCCCCCCCCCCCCCC(=O)*

Experiments:
[1] = tested on: Bone marrow derived dendritic cells (BMDC); test: DQ-OVA uptake and processing by bone marrow derived dendritic cells (flow cytometry); assay type: cell-based, mouse; details: for uptake and processing of DQ-OVA by DC (fluorescence): 37° C., versus DQ-OVA in media alone
Experimental: FIG. 1 provides a graph showing that DOTAP enhancement of antigen processing is specific for dendritic cells. Bone marrow derived dendritic cells were incubated with DQ-OVA in the presence of various concentrations of DOTAP as shown. In addition, a mouse epithelial cell line, TC1, was treated in an identical fashion.
FIG. 2 provides fluorescence readings for receptor mediated uptake. R-DOTAP nanoparticles, but not MPL stimulate uptake and processing by DC within 10 minutes. Mouse bone marrow DC were incubated in the presence of fluorescent DQ-OVA for one hour at either 37° C. or 4° C./azide in the presence of 25 uM DOTAP nanoparticles, 10 ug/ml MPL or media alone, and analyzed by flow cytometry. On the presented density plot, the y-axis represents the amount of green fluorescence which results from uptake and processing of the protein, while the x-axis represents the amount of red fluorescence resulting from concentration in endosomal vesicles.
To determine the effects of cationic lipids on antigen uptake and processing by dendritic cells, a fluorescent ovalbumin protein called DQ-OVA was used. DQ-OVA is non-fluorescent when intact, but emits both red and green fluorescence when the protein is degraded. Dendritic cells were grown from mouse bone marrow by culturing for 8 days in GMCSF+IL-4 (hereafter referred to as BMDC). BMDC were incubated at 37° C. or 4° C. for 1 hour with DQ-OVA alone, or DQ-OVA mixed with different concentrations of the cationic lipid R-DOTAP. The cells were then washed, fixed, and stained with fluorescent antibodies to CD11c, a marker for dendritic cells. Cells were then analyzed on an LSRII flow cytometer in both red and green fluorescent channels.
To determine whether non-cationic lipid adjuvants could mediate the same effect as DOTAP, BMDC were incubated with DQ-OVA in media alone or with DOTAP as described for FIG. 1. In addition, BMDC were incubated under identical conditions with the potent lipid adjuvant […] (MPL).

[2] = tested on: OT1 splenocytes (TCR transgenic T cells specific for SIINFEKL); test: Cross-presentation of OVA by DC to MHC class I restricted OT-1 T cells (3H-thymidine uptake); assay type: cell-based, mouse; details: whole OVA protein, 25 uM lipid, 37° C., versus OVA without cationic lipid
Experimental: FIG. 3: R-DOTAP enhancement of antigen processing results in enhancement of cross-presentation to MHC class I restricted T cells. Bone marrow derived DC were incubated in the presence of various concentrations of whole OVA protein and 25 uM DOTAP or DOTMA for 30 min at 37° C. or 4° C.
In order to verify that the cationic lipid facilitated uptake of antigen translates into enhanced antigen presentation on MHC class I (cross presentation), T cells from a TCR transgenic mouse (OT-1) were utilized in which all T cells are specific for an internal peptide of OVA. These T-cells will only proliferate if presented with DCs which have processed OVA and presented an OVA peptide on MHC class I molecules. Thus, this represents a stringent assay for cross-presentation. BMDC were incubated with different concentrations of the whole OVA protein in the presence or absence of two cationic lipids, either DOTAP or DOTMA for 1 hour at 37° C. The DCs were then washed, fixed and added to the OVA peptide specific T-cells. […] This response was dose dependent with respect to the OVA concentration, and was even apparent when DC were incubated with OVA at 4° C.

[3] = tested on: HPV16-positive TC-1 tumors; test: Regression of established TC-1 tumors, R- versus S-DOTAP, administered Day 6; assay type: in vivo, mice; details: 1×10E^5 TC-1 cells day 0, administered on Day 6
Experimental: Effect of R-DOTAP (solid squares), R-DOTAP/HPV16-E7 (clear squares) and S-DOTAP/HPV16-E7 (solid circles) vaccination on regression of established HPV16-positive TC-1 tumors. The HPV16 E7 peptide used in the vaccine (SEQ ID NO: 2) is labelled KF18. Tumor volumes were measured using calipers.
R-DOTAP only, R-DOTAP/HPV16 E7 (SEQ ID NO: 2) and S-DOTAP/HPV16 E7 (SEQ ID NO: 2) were administered on Day 6 after tumor implantation.

[4] = tested on: T-cells and total lymphocytes in popliteal lymph nodes; test: T-cell and lymphocyte infiltration into draining lymph nodes after foot pad injection; assay type: in vivo, mice
Excerpt: FIG. 10 provides a graph showing that R-DOTAP injection induces the migration of lymphocytes including T-lymphocytes into the draining lymph nodes. […] R-DOTAP injection is represented by striped bars, and the control is represented by shaded bars.
To better understand the ability of T-cell activating cationic lipids such as R-DOTAP to promote the induction of the effector CD8+ T-cells, which are also critical in altering the tumor's microenvironment, the impact of R-DOTAP vaccination on B and T-cells was studied. 12 mM R-DOTAP or sucrose as control were injected into the right and left foot pad respectively of mice and the influx of T-cells and total lymphocytes into the draining lymph nodes were quantified by flow cytometry. In this experiment, 15 hours after vaccination the popliteal lymph nodes were removed and analysis performed. […] Five mice were used per study.

[5] = tested on: HPV16-specific CD8+ T-cells; test: HPV16-specific CD8+ T-cell induction after vaccination, ELISPOT of splenocytes; assay type: in vivo, C57 black mice; details: given with KF18 HPV peptide, vaccinated Day 0 and Day 7, splenocytes Day 14, stimulated with RAHYNIVTF
Excerpt: Effect of HPV16-E7, R-DOTAP/HPV16-E7, S-DOTAP/HPV16-E7 and Alum/MPL/HPV16-E7 vaccination on HPV16-specific CD8+ T-cell induction by ELISpot. The HPV16 E7 peptide used in the vaccine (SEQ ID NO: 2) is labelled KF18.
C57 black mice were vaccinated with various formulations: • Group 1: KF18 HPV peptide • Group 2: KF18 HPV peptide+R-DOTAP liposomes • Group 3: KF18 HPV peptide+S-DOTAP liposomes • Group 4: KF18 peptide+MPL/Alum adjuvant • *For each of the groups above, the KF18 HPV peptide corresponds to Palmitoyl-KSS-[…] (SEQ ID NO: 2)
5 mice per group were injected with the various formulations. The mice were vaccinated on Day 0 and Day 7 and sacrificed on Day 14. The splenocytes were removed and ELISPOT studies performed. The splenocytes were stimulated with the peptide […] (SEQ ID NO: 3), the HPV16 CD8+ T-cell epitope peptide recognized by the C57 mice.

[6] = tested on: T regulatory cells (CD45+CD3+CD4+CD25+Foxp3+) in tumor; test: Regulatory T cell population within TC-1 tumors (flow cytometry); assay type: in vivo, C57 mice; details: Day 19, within 1 week of vaccination (Day 12)
Experimental: FIG. 6: provides a graph showing that R-DOTAP and R-DOTAP+antigen uniquely reduce the population of regulatory T cells within the tumors after vaccination. 1×10^5 cells implanted subcutaneously on the right side of the abdomen of female B6 mice on day 0 and were vaccinated on day 12 and on day 19 post Tumor implant. T regulatory cells (CD45+CD3+CD4+CD25+Foxp3+) cells infiltrated into tumors on day 19. The reduction is calculated as the ratio of total T reg cells in tumor/average T reg cell in tumor and normalized to T reg cells in naïve mouse. Data represents mean±SEM of 4-5 mice in each group. * Statistically significant R-DOTAP+antigen compared to all other groups (other than R-DOTAP only). P<0.01.
C57 mice were divided into the following groups of 8 mice per group: • Group 1: R-DOTAP+KF18 (SEQ ID NO: 2) • Group 2: GM-CSF+KF18 (SEQ ID NO: 2) • Group 3: R-DOTAP • Group 4: GM-CSF • Group 5: KF18 (SEQ ID NO: 2) • Group 6: Naïve mice (tumor bearing and untreated). • 1×10E^5 TC-1 tumor cells were injected into the flank of the mice on day 0. The various formulations were administered on Days 12 and 19 after tumor implantation. […]

[7] = tested on: CFSE labeled lymphocytes in popliteal LN; test: Lymph node homing of CFSE labeled adoptively transferred spleen cells, with or without pertussis toxin; assay type: in vivo, B6 mice; details: after 16 h
Excerpt: The primary objective of the current experiment was to understand if T-cell infiltration induced by R-DOTAP is chemokine dependent. We utilized 5 mice to perform the study, and visualized the homing of CFSE labeled adoptively transferred cells. The study included a population of cells that had been treated in vitro with pertussis toxin to inactivate chemokine receptors. Pertussis toxin-treated and untreated cells were labeled with two different concentrations of CFSE so that they could be distinguished by flow cytometry.
Spleen cells were prepared from a single B6 mouse and divided in half. Half of the cells were treated with Pertussis toxin 100 ng/ml for 1 hour at 37° C. and washed. The two cell populations were then labeled with CFSE at two different concentrations so they could be distinguished by flow cytometry, and mixed together. The mix (10e7 cells) was injected i.v. into the tail vein of 5 B6 mice. The mice were then anesthetized and injected in the footpad with either sucrose (right footpad) or R-DOTAP (left footpad, 50 ul, 600 nmoles).
After 16 h, the mice were sacrificed and the popliteal LN and spleens harvested. The total cells recovered from left and right nodes from each mouse were counted.

HPV-positive TC-1 tumors = test: Regression of established TC-1 tumors, vaccination Days 12 and 19; assay type: in vivo, C57 mice
Experimental: Tumors were implanted on Day 0 and the mice vaccinated on Days 12 and 19. Tumor volumes were measured using calipers. The naïve mice group are tumor bearing mice that remained untreated. […] P<0.01.
C57 mice were divided into the following groups of 8 mice per group: • Group 1: R-DOTAP+KF18 (SEQ ID NO: 2) • Group 2: GM-CSF+KF18 (SEQ ID NO: 2) • Group 3: R-DOTAP • Group 4: GM-CSF • Group 5: KF18 (SEQ ID NO: 2) • Group 6: Naïve mice (tumor bearing and untreated). • 1×10E^5 TC-1 tumor cells were injected into the flank of the mice on day 0. The various formulations were administered on Days 12 and 19 after tumor implantation.
The third group of animals who were treated with either R-DOTAP alone or GM-CSF alone without antigen, or left untreated (Treg/CD8+ ratio >30) had tumor volumes of 300-700 mm^3.

## CCCCCCCC/C=C\CCCCCCCC(=O)OCC(C[N+](C)(C)C)OC(=O)CCCCCCC/C=C\CCCCCCCC (stereo not shown) [DOTAP, 1,2-dioleoyl-3-trimethylammonium propane]
[1]; BMDC with DQ-OVA, 1 hour, 4° C.
  uptake of DQ-OVA by DC at 4° C.: Significant uptake
[1]; BMDC with DQ-OVA, 1 hour
  uptake and processing of DQ-OVA by DC (fluorescence): significant increase of fluorescence
[1]; concentration dependent effect in BMDC
  concentration showing the greatest effect on DQ-OVA uptake: 50 µM
[2]
  cross-presentation of OVA antigen by DC to CD8+ T cells: much more efficiently

## CCCCCCCC/C=C\CCCCCCCC(=O)OCC(C[N+](C)(C)C)OC(=O)CCCCCCC/C=C\CCCCCCCC (stereo not shown) [R-DOTAP, 1,2-dioleoyl-3-trimethylammonium propane]
[1]; 25 uM DOTAP nanoparticles, FIG. 2 legend
  time within which uptake and processing by DC is stimulated: ≤ 10 min
[1]; BMDC with DQ-OVA, 1 hour
  uptake and processing of DQ-OVA by DC (fluorescence): greatly enhanced
[3]
  anti-tumor effect on established TC-1 tumors: lack of regression or inhibition of growth
[4]; 12 mM, foot pad, 15 hours after vaccination, sucrose as control
  infiltration of T-cells into the draining lymph node: significant infiltration of T-cells into the lymph node
[4]; 5 hours, 16 hours, 3 days and 4 days
  lymphocyte infiltration into the lymph nodes over time: increase over the 4-day period
[5]
  HPV-specific CD8+ T-cell response (ELISPOT): effective in inducing strong HPV-specific CD8+ T-cell responses
[6]
  reduction in the Treg population within the tumors: about 20%
[7]; cells treated with Pertussis toxin 100 ng/ml
  infiltration of pertussis toxin treated CFSE labeled cells into the lymph node: did not occur
[7]; untreated cells, footpad 50 ul, 600 nmoles
  infiltration of transferred CFSE labeled lymphocytes into the lymph node: infiltrated the lymph node

## CCCCCCCC/C=C\CCCCCCCC(=O)OCC(C[N+](C)(C)C)OC(=O)CCCCCCC/C=C\CCCCCCCC (stereo not shown) [S-DOTAP, 1,2-dioleoyl-3-trimethylammonium propane]
[1]; BMDC with DQ-OVA, 1 hour
  uptake and processing of DQ-OVA by DC (fluorescence): no difference
[5]
  HPV-specific CD8+ T-cell response (ELISPOT): did not result in an enhanced CD8+ T-cell response beyond what was seen with the peptide alone

## Monophorphoryl lipid-A [MPL, reference compound]
[1]; BMDC with DQ-OVA, 1 hour
  uptake and processing of DQ-OVA by DC (fluorescence): no such enhancement
[5]
  HPV-specific CD8+ T-cell response (ELISPOT): significantly lower CD8+ T-cell response compared to R-DOTAP

## Palmitoyl-KSS-GQAEPDRAHYNIVTF (Palmitoyl-KSSGQAEPDRAHYNIVTF) [KF18]
HPV-positive TC-1 tumors; vaccinated Days 12 and 19, Day 26
  tumor volume: about 200 mm^3
HPV-positive TC-1 tumors; vaccinated Days 12 and 19, by Day 26
  tumor regression / elimination: did not induce any tumor regression but rather inhibited tumor growth
